Test results: publication PMC3729039 (Molecular cancer therapeutics, 2013)

Assays:
PC3 cells = assay: Viability assay, PC3; type: cell-based, human; details: PC3, treated for 3 days
LNCaP95 cells = assay: LNCaP95 cell growth/viability
VCaP cells = assay: Viability assay, VCaP; type: cell-based; details: VCaP (wild-type AR), treated for 5 days
[1] = molecular target: T1, full-length human glucocorticoid receptor (GR) (Homo sapiens, UniProt P04150); assay: GR transcriptional activity, GRE reporter in LNCaP cells; details: 10 µM, 10 nM dexamethasone, 48 hours
T1 sequence (P04150 1-777): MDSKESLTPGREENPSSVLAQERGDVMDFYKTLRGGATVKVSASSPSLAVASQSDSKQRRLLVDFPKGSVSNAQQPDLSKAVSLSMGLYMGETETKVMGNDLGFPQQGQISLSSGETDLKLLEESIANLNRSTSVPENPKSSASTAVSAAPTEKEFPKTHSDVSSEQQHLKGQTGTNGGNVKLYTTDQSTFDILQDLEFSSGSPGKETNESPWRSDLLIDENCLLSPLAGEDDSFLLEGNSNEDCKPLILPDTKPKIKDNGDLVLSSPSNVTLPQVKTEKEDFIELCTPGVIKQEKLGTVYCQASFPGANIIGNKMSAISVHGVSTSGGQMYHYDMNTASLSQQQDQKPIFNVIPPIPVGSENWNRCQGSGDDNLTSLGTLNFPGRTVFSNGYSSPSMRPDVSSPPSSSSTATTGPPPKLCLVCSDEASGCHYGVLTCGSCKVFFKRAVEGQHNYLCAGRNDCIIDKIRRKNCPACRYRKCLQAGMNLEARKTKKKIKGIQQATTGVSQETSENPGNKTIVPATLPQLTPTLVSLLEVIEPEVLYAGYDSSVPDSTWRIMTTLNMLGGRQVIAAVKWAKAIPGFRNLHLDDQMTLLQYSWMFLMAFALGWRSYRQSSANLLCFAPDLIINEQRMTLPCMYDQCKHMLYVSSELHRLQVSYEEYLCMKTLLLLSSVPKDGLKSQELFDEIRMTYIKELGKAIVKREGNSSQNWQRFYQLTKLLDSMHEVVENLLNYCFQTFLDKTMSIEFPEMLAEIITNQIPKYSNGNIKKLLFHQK

[2] = molecular target: T2, full-length human progesterone receptor-beta (PRβ) (Homo sapiens, UniProt P06401); assay: PR transcriptional activity, PRE luciferase reporter in LNCaP cells; type: cell-based; details: 10 µM, 10 nM 4-pregnene-3,20 dione, 48 hours
T2 sequence (P06401 1-933): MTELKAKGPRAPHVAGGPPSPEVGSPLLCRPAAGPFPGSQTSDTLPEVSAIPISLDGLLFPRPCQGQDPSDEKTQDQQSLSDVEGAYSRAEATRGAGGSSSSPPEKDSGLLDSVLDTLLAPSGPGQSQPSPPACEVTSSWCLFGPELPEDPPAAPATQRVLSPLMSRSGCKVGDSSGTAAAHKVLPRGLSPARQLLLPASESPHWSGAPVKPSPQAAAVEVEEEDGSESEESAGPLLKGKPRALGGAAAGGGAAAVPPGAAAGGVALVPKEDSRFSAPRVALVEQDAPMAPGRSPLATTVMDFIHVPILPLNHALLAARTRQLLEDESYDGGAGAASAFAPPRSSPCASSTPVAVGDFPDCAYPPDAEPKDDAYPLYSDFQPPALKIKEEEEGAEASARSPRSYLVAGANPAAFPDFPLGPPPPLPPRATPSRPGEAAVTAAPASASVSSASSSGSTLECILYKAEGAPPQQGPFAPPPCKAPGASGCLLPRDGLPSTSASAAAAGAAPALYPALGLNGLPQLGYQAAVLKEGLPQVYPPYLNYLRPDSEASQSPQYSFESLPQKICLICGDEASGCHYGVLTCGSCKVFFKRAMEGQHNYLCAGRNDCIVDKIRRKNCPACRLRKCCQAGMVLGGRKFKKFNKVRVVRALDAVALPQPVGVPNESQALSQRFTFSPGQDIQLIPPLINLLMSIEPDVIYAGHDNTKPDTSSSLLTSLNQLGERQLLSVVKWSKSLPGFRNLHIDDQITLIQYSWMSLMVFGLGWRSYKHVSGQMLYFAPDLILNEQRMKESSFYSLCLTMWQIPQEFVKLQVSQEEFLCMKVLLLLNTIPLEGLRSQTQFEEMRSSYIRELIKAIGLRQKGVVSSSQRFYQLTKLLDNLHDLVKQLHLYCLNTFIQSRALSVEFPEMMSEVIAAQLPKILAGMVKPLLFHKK

LNCaP cells = assay: Viability assay, LNCaP; type: cell-based, human; details: treated for 4 days
[3] = system: seminal vesicles (androgen-dependent tissue); assay: In vivo effects on androgen-dependent tissue in intact male mice; set-up: species or system NOD-SCID mice; details: mature male mice, 10 mg/kg oral gavage, 13 daily doses
[4] = system: PSA, FKBP5 and TMPRSS2 transcripts; assay: qRT-PCR of androgen-regulated genes in VCaP cells; type: cell-based; details: 10 µM, 1 nM R1881, 16 hours
recombinant human PR LBD = molecular target: T3, recombinant human PR LBD (Homo sapiens, UniProt P06401); assay: In vitro ligand competitor assay; type: binding
T3 sequence (P06401 679-913 limits assumed): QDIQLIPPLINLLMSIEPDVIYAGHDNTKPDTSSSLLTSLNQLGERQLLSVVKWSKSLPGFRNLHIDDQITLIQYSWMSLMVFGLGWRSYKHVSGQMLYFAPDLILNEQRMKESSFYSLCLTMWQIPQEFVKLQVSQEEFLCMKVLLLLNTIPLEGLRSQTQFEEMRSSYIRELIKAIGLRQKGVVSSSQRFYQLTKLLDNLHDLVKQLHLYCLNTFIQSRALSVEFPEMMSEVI

[5] = system: PC3 human prostate cancer cells; assay: Proliferation of PC3 cells; type: cell-based; details: PC3, 0.1 nM R1881
[6] = system: LNCaP human prostate cancer cells; assay: Androgen-dependent proliferation of LNCaP cells; type: cell-based; details: 0.1 nM R1881
[7] = molecular target: recombinant human full-length ERα (Homo sapiens, UniProt P03372); assay: In vitro ligand competitor assay; type: binding; details: fluorescence polarization competitor assay
Chain of recombinant human full-length ERα (P03372 whole entry): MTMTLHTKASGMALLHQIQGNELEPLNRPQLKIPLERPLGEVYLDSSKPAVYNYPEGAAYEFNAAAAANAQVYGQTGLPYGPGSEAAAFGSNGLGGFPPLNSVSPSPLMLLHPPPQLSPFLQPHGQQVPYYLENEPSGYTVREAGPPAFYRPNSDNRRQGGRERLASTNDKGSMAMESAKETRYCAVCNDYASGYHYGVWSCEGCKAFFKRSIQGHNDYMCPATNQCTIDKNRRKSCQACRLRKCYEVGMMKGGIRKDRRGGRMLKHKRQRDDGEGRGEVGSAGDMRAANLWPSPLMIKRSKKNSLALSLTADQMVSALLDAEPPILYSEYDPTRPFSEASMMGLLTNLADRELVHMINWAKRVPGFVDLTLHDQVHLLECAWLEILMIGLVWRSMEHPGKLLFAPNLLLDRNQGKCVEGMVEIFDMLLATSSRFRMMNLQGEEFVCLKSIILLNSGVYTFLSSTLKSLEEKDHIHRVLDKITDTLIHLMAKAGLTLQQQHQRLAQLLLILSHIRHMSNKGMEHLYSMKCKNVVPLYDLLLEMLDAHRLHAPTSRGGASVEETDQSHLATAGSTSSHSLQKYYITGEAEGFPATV

Compound | cytotoxicity (viability assay) (PC3 cells) | effect on cell growth/viability (LNCaP95 cells) | cytotoxicity (viability assay) (VCaP cells) | effect on transcriptional activity of GR induced by dexamethasone [1] | effect on PR transcriptional activity induced by Preg [2] | cytotoxicity (viability assay) (LNCaP cells) | testes weight [3] | effect on androgen-induced levels of PSA transcript [4] | effect on androgen-induced levels of transcript for FKBP5 and TMPRSS2 [4] | EC50 (recombinant human PR LBD) [µM] | effect of androgen on proliferation [5] | effect of androgen on proliferation [6] | competition with fluoromone for ERα [7]
CC(O)(CS(=O)(=O)c1ccc(F)cc1)C(=O)Nc1ccc(C#N)c(C(F)(F)F)c1 (stereo not drawn) [BIC, bicalutamide] | no indication of cytotoxicity | not altered | no indication of cytotoxicity | had no effect | inhibited | no indication of cytotoxicity | no effect on the weight of testis | neither BIC or any of the diterpenoids significantly reduced these levels | significantly blocked | 5.1 | – | – | –
C[C@]1(O)CC[C@H]2[C@@H]3CCC4=CC(=O)CCC4=C3C=C[C@@]21C [R1881] | – | not altered | – | – | – | – | – | – | – | – | did not alter their proliferation | led to increased proliferation | none of the AR ligands (R1881, BIC and the diterpenoids) were efficient in competing
CC#C[C@]1(O)CC[C@H]2[C@@H]3CCC4=CC(=O)CCC4=C3[C@@H](c3ccc(N(C)C)cc3)C[C@@]21C [RU486] | – | – | – | – | inhibited | – | – | – | – | – | – | – | –
